Here are results for 3 compounds from article PMC13184988, “Enzymatic Bromination of Native Peptides for Late-Stage Structural Diversification via Suzuki–Miyaura Coupling” (ACS Chemical Biology, 2026).

Several values for one entry are separate records, joined by “and”; a condition that tells them apart may be missing. Identical values can stand only once. *1 amine or outer side, *2 acyl side, *3 side chain or, on linkers, in order; H or OH if unused. Where a SMILES comes first, the peptide text is derived from it. [ ]: non-standard residue; d: D form. X1 = O=C([C@H](Cc1c[nH]c2c(-c3cccc(C(F)(F)F)c3)cccc12)N[*:1])[*:2]; Trp(7-Br) = N[C@@H](Cc1c[nH]c2c(Br)cccc12)C(=O)O

In one test the test system is 4V. Type of test: biochemical.
For test [1], the system named is E. coli XL10. Description: Bacterial minimal inhibitory concentration, 18 h growth inhibition assay. The class given is cell-based.
The subject of test [2] is E. coli XL10. Briefly: Minimal bactericidal concentration (Petri dish and spot assay). Type of test: cell-based. Here is the method:
0.5%. After incubation, the cells were washed 2 × 0.5 mg/mL heparin sulfate in PBS and then washed with 2 × FluoroBrite DMEM. FluoroBrite DMEM (200 µL) was added to each well for imaging. 1 drop of NucRed nuclear counterstain was added to visualize the cell nuclei. The cells were imaged using a Nikon microscope equipped with an Orca-Fire camera. Fiji was used for […]
. Fluorescence images were background corrected and individual nuclei were segmented based on a threshold intensity in the NucRed […]
Mueller-Hinton II cation-adjusted broth (10 mL) was inoculated with E. coli XL10 and incubated overnight with shaking at 37°C. The next day, the overnight culture was diluted to an OD600 of 0.5 […]
OD600 0.5 culture was further diluted 20-fold into fresh Mueller-Hinton II cation-adjusted broth […]
From each triplicate experiment, 100 µL of the 18-hour minimal inhibitory growth culture (see above) was plated on a petri dish containing Mueller-Hinton II cation-adjusted agar. […] The next morning, the bacterial growth on each triplicate plate was assessed. […]
Using a multichannel pipette, 3 μL from each triplicate of the 18-hour minimal inhibitory growth culture (see above) was spotted on a square petri dish containing Mueller-Hinton II cation-adjusted agar. […] The next morning, the bacterial growth on each triplicate plate was assessed. […]

Take galanin: in the test on 4V, the “Average Percent Conversion” value came to 21.379%; the “Percent Br2 Conversion (EIC)” value turned out to be 0%; the “Percent Br Conversion (EIC)” value was 21.5543% and 21.2037%; the “Total Percent Conversion” value was 21.2037% and 21.5543%. The “4V-catalyzed conversion to the monobrominated product” value in the test on 4V (unmodified bioactive peptides, 1 mM peptide, 10 mM NaBr, 25 μM 4V, 25 mM HEPES pH 7.4, 24 h ambient, n = 3 independent experiments) was 16.8 ± 0.2%.

On to `N=C(N)NCCC[C@H](NC(=O)[C@H](Cc1c[nH]c2ccccc12)NC(=O)[C@H](CCCNC(=N)N)NC(=O)[C@H](Cc1c[nH]c2ccccc12)NC(=O)[C@@H](N)CCCNC(=N)N)C(=O)N[C@@H](Cc1c[nH]c2c(Br)cccc12)C(N)=O` [Br-(RW)3] (H-RWRWR[Trp(7-Br)]-NH2; N-terminus assumed), for which the “fold decrease in MIC relative to the parent peptide (RW)3” value with E. coli XL10 [1] is given as “approximately 4 fold”. For the same compound, the “fold decrease in MBC relative to the parent peptide (RW)3” value in the test with E. coli XL10 [2] was “approximately 4 fold”.

For the compound `N=C(N)NCCC[C@H](NC(=O)[C@H](Cc1c[nH]c2ccccc12)NC(=O)[C@H](CCCNC(=N)N)NC(=O)[C@H](Cc1c[nH]c2ccccc12)NC(=O)[C@@H](N)CCCNC(=N)N)C(=O)N[C@@H](Cc1c[nH]c2c(-c3cccc(C(F)(F)F)c3)cccc12)C(N)=O` [CF3(−RW)3] (H-RWRWR[X1]-NH2; N-terminus assumed), the “fold decrease in MBC relative to the parent peptide (RW)3” value in the test with E. coli XL10 [2] is given as 4 fold.
